Experimental data as given in patent publication US11174242B2, “Heteroaryl compounds and their use” (Minoryx Therapeutics S.L., priority 2016, dated 2021).
Residue numbers refer to the chain shown, from its start.

Assays:
[1] = molecular target: T1, β-glucocerebrosidase Wild Type (WT) (Homo sapiens, UniProt P04062); assay: β-glucocerebrosidase activity enhancement, Wild Type (WT); assay type: cell-based; settings: increase in enzyme activity vs non-treated cells; for Activity WT: commercially available compounds
T1 construct: endogenous in cells
T1 sequence (P04062 40-536): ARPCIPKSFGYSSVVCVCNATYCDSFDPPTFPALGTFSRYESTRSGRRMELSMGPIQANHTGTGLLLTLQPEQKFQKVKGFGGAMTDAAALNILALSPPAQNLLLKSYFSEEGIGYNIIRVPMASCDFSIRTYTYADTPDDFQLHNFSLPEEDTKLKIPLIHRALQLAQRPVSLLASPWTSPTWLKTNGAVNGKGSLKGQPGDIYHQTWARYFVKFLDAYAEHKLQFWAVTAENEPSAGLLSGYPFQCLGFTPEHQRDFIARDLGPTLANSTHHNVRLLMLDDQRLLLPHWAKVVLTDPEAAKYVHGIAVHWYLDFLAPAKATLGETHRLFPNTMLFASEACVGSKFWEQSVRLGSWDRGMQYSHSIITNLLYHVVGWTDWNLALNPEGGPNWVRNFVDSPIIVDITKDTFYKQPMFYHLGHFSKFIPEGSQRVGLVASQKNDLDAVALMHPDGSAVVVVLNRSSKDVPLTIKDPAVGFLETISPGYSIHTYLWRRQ
Experimental: (§1) Fibroblasts were seeded at 5×10^3 cells per well in 96-well cell culture plates (Corning, N.Y., USA) in Dulbecco's Modified Eagle's Media (DMEM) supplemented with 10% of fetal bovine serum (FBS), 1% penicillin/streptomycin (P/S) (Thermo Fisher Scientific, Waltham, Mass., USA) and grown at 37° C., 5% CO2 overnight for cell attachment. Subsequently, cells were incubated in the absence or presence of the compounds at the desired concentration for 4 days. After incubation, cells were washed twice with phosphate-buffered saline (PBS) and enzyme activity assay was performed.
(§2) β-glucocerebrosidase activity in intact cultured cells was measured by using 4-methylumbelliferyl-β-D-glucopyranoside substrate (Apollo Scientific, UK). Briefly, cells were incubated with 4-MU-β-D-glucopyranoside in 0.1 M acetate buffer pH=4 at 37° C. for 1 hour. […] The liberated 4-MU was measured on a GloMax Discover plate reader (Promega, Madison, Wis., USA) with and excitation at 340 nm and emission at 460 nm. Enzyme activities were expressed in treated cells as X-fold increase in comparison with non-treated cells (X=1 represents no enhancement).
(§3) The following compounds listed in Table 2 were purchased (from Enamine, Princeton, Asinex, Vistas-M, and OSSK_541352) and tested in the assay as described above.

[2] = molecular target: T2, β-glucocerebrosidase, p.L444P mutation (GM08760A fibroblasts) (Homo sapiens, UniProt P04062, L483P); assay: Enhancement of β-glucocerebrosidase activity measured in Gaucher disease fibroblasts (L444P); assay type: cell-based; settings: increase in enzyme activity vs non-treated cells, GBA fibroblasts bearing L444P
T2 construct: host or cells: human Gaucher patient fibroblasts GM08760A, homozygous L444P
T2 sequence (P04062 40-536 L483P): T1 sequence (P04062 40-536) with L444P
Experimental: Enhancement of β-Glucocerebrosidase Activity Measured in Gaucher Disease Fibroblasts Materials
Human fibroblasts from a patient with Gaucher disease homozygous for p.L444P mutation (GM08760A) were purchased from Coriell Institute for Medical Research (Camden, N.J., USA).
as §1, §2
The capacity of the compounds of the disclosure to produce an increase in enzyme activity in GBA fibroblasts bearing L444P at concentrations between 6 and 50 μM is denoted as follows:
as §3

[3] = commercially available compounds, 6-50 μM, 4 days
[4] = concentrations between 6 and 50 μM, 4 days incubation

CCc1ccc(CN(C)Cc2nc(N)nc(Nc3ccc(C)cc3)n2)cc1 [6-(((4-ethylbenzyl)(methyl)amino)methyl)-N2-(p-tolyl)-1,3,5-triazine-2,4-diamine]
Activity WT [1]: B (Increase in comparison with non-treated of >1.7-2.0 fold is shown as B) | Activity L444P [2, 3]: C (Increase in comparison with non-treated of 1.2-1.7 fold is shown as C)

Cc1ccc(Nc2nc(N)nc(CN(C)c3ccc4ccccc4c3)n2)cc1 [6-((methyl(naphthalen-2-yl)amino)methyl)-N2-(p-tolyl)-1,3,5-triazine-2,4-diamine]
Activity WT [1]: C (Increase in comparison with non-treated of 1.2-1.7 fold is shown as C) | Activity L444P [2, 3]: A (Increase in comparison with non-treated of >2.0 fold is shown as A)

Cc1ccc(Nc2nc(N)nc(CN(C)c3ccccc3)n2)cc1 [Example 1, 6-((Methyl(phenyl)amino)methyl)-N^2-(p-tolyl)-1,3,5-triazine-2,4-diamine]
Activity Wild Type (WT) [1]: B (Increase in comparison with non-treated of >1.7-2.0 fold is shown as B) | Activity L444P [2, 4]: C (Increase in comparison with non-treated of 1.2-1.7 fold is shown as C)

COc1cccc(Nc2nc(N)nc(CN(C)c3ccccc3)n2)c1 [Example 3]
Activity Wild Type (WT) [1]: B (Increase in comparison with non-treated of >1.7-2.0 fold is shown as B) | Activity L444P [2, 4]: C (Increase in comparison with non-treated of 1.2-1.7 fold is shown as C)

Cc1ccc(Nc2nc(N)nc(CN(C)Cc3ccccc3)n2)cc1 [Example 4, 6-((Benzyl(methyl)amino)methyl)-N^2-p-tolyl-1,3,5-trizine-2,4-diamine]
Activity Wild Type (WT) [1]: A (Increase in comparison with non-treated of >2.0 fold is shown as A) | Activity L444P [2, 4]: C (Increase in comparison with non-treated of 1.2-1.7 fold is shown as C)

CN(Cc1ccccc1)Cc1nc(N)nc(Nc2ccc(Br)cc2)n1 [Example 5, 6-((Benzyl(methyl)amino)methyl)-N^2-(4-bromophenyl)-1,3,5-triazine-2,4-diamine]
Activity Wild Type (WT) [1]: C (Increase in comparison with non-treated of 1.2-1.7 fold is shown as C) | Activity L444P [2, 4]: C (Increase in comparison with non-treated of 1.2-1.7 fold is shown as C)

COc1ccc(Nc2nc(N)nc(CN(C)Cc3ccccc3)n2)cc1 [Example 6, 6-((Benzyl(methyl)amino)methyl)-N^2-(4-methoxyphenyl)-1,35-triazine-2,4-diamine]
Activity Wild Type (WT) [1]: B (Increase in comparison with non-treated of >1.7-2.0 fold is shown as B) | Activity L444P [2, 4]: B (Increase in comparison with non-treated of >1.7-2.0 fold is shown as B)

CN(Cc1ccccc1)Cc1nc(N)nc(Nc2cccc(Br)c2)n1 [Example 8]
Activity Wild Type (WT) [1]: B (Increase in comparison with non-treated of >1.7-2.0 fold is shown as B) | Activity L444P [2, 4]: B (Increase in comparison with non-treated of >1.7-2.0 fold is shown as B)

COc1cccc(Nc2nc(N)nc(CN(C)Cc3ccccc3)n2)c1 [Example 9]
Activity Wild Type (WT) [1]: B (Increase in comparison with non-treated of >1.7-2.0 fold is shown as B) | Activity L444P [2, 4]: C (Increase in comparison with non-treated of 1.2-1.7 fold is shown as C)

COc1ccccc1Nc1nc(N)nc(CN(C)Cc2ccccc2)n1 [Example 10, 6-((Benzyl (methyl)amino)methyl)-N^2-(2-methoxyphenyl)-1,3,5-triazine-2,4-diamine]
Activity Wild Type (WT) [1]: B (Increase in comparison with non-treated of >1.7-2.0 fold is shown as B) | Activity L444P [2, 4]: C (Increase in comparison with non-treated of 1.2-1.7 fold is shown as C)

CN(Cc1ccccc1)Cc1nc(N)nc(Nc2cccc(C#N)c2)n1 [Example 12, 3-(4-Amino-6-((benzyl(methyl)amino)methyl)-1,3,5-triazin-2-ylamino)benzonitrile]
Activity Wild Type (WT) [1]: B (Increase in comparison with non-treated of >1.7-2.0 fold is shown as B) | Activity L444P [2, 4]: C (Increase in comparison with non-treated of 1.2-1.7 fold is shown as C)

Cc1ccc(Nc2cc(CN(C)c3ccccc3)nc(N)n2)cc1 [Example 13, 6-((Methyl(phenyl)amino)methyl)-N^4-(p-tolyl)pyrimidine-2,4-diamine]
Activity Wild Type (WT) [1]: B (Increase in comparison with non-treated of >1.7-2.0 fold is shown as B) | Activity L444P [2, 4]: B (Increase in comparison with non-treated of >1.7-2.0 fold is shown as B)

Cc1ccc(Nc2cc(CN3CCCc4ccccc43)nc(N)n2)cc1 [Example 14, 6-((3,4-Dihydroquinolin-1(2H)-yl)methyl)-N^4-(p-tolyl)pyrimidine-2,4-diamine]
Activity Wild Type (WT) [1]: B (Increase in comparison with non-treated of >1.7-2.0 fold is shown as B) | Activity L444P [2, 4]: C (Increase in comparison with non-treated of 1.2-1.7 fold is shown as C)

Cc1cccc(Nc2cc(CN(C)Cc3ccccc3)nc(N)n2)c1 [Example 16]
Activity Wild Type (WT) [1]: A (Increase in comparison with non-treated of >2.0 fold is shown as A) | Activity L444P [2, 4]: B (Increase in comparison with non-treated of >1.7-2.0 fold is shown as B)

COc1ccc(Nc2cc(CN(C)Cc3ccccc3)nc(N)n2)cc1 [Example 18, 6-((benzyl(methyl)amino)methyl)-N^4-(4-methoxyphenyl)pyrimidine-2,4-diamine]
Activity Wild Type (WT) [1]: B (Increase in comparison with non-treated of >1.7-2.0 fold is shown as B) | Activity L444P [2, 4]: B (Increase in comparison with non-treated of >1.7-2.0 fold is shown as B)

CN(Cc1ccccc1)Cc1cc(Nc2ccc(C#N)cc2)nc(N)n1 [Example 19, 4-(2-amino-6-((benzyl(methyl)amino)methyl)pyrimidin-4-ylamino)benzonitrile]
Activity Wild Type (WT) [1]: B (Increase in comparison with non-treated of >1.7-2.0 fold is shown as B) | Activity L444P [2, 4]: B (Increase in comparison with non-treated of >1.7-2.0 fold is shown as B)

CN(Cc1ccccc1)Cc1cc(Nc2cccc(Cl)c2)nc(N)n1 [Example 20]
Activity Wild Type (WT) [1]: B (Increase in comparison with non-treated of >1.7-2.0 fold is shown as B) | Activity L444P [2, 4]: B (Increase in comparison with non-treated of >1.7-2.0 fold is shown as B)

CN(Cc1ccccc1)Cc1nc(N)nc(Nc2cccnc2)n1 [Example 26, 6-((Benzyl(methyl)amino)methyl)-N^2-(pyridin-3-yl)-1,3,5-triazine-2,4-diamine]
Activity Wild Type (WT) [1]: B (Increase in comparison with non-treated of >1.7-2.0 fold is shown as B) | Activity L444P [2, 4]: C (Increase in comparison with non-treated of 1.2-1.7 fold is shown as C)

Cc1ccccc1Nc1cc(CN(C)Cc2ccccc2)nc(N)n1 [Example 28, 6-((Benzyl(methyl)amino)methyl)-N^4-o-tolylpyrimidine-2,4-diamine]
Activity Wild Type (WT) [1]: B (Increase in comparison with non-treated of >1.7-2.0 fold is shown as B) | Activity L444P [2, 4]: B (Increase in comparison with non-treated of >1.7-2.0 fold is shown as B)

CN(Cc1ccccc1)Cc1cc(Nc2ccc3ccncc3c2)nc(N)n1 [Example 30, 6-((Benzyl(methyl)amino)methyl)-N^4-(isoquinolin-7-yl)pyrimidine-2,4-diamine]
Activity Wild Type (WT) [1]: B (Increase in comparison with non-treated of >1.7-2.0 fold is shown as B) | Activity L444P [2, 4]: A (Increase in comparison with non-treated of >2.0 fold is shown as A)
